Data taken from patent publication US10653667B2, “Drug for preventing, treating or preventing metastasis of giant cell tumor that occurs in bone or soft parts, chondrosarcoma, or osteosarcoma, local injection for arterial embolization, and artificial bone” (NIPPON CHEMIPHAR CO., LTD, priority 2013, dated 2020).
“Also recorded” adds a separate entry of the source.

Assays:
[1] = system: synovial cells derived from rheumatism patients; conditions: cited from earlier work
[2] = system: cultured cells of pigmented villonodular synovitis (PVNS); experiment: Suppression of cell proliferation of PVNS cultured cells (CCK-8); format: cell-based, human; conditions: for suppression of cell proliferation (absorbance at 450 nm): PVNS cells, drug at various concentrations, CCK-8 24 hours after addition
[3] = system: cultured cells of giant cell tumor of tendon sheath (GCTT); experiment: Suppression of cell proliferation of GCTT cultured cells (CCK-8); format: cell-based, human; conditions: drug at various concentrations, CCK-8 24 hours after addition
SW1353 cells [4] = experiment: Suppression of cell proliferation of chondrosarcoma cell line SW1353 (CCK-8); format: cell-based, human; conditions: drug at various concentrations
From the text: (§1) The H-EMC-SS cells were obtained from the Riken BioResource Center. As the SW1353 cells, those obtained from ATCC were used.

H-EMC-SS cells = experiment: Suppression of cell proliferation of chondrosarcoma cell line H-EMC-SS (CCK-8); format: cell-based, human; conditions: drug at various concentrations
From the text: The H-EMC-SS cells were obtained from the Riken BioResource Center.
as §1

[5] = system: GCTB cultured cells (case 1, case 2; GCT-1, GCT-2); experiment: Suppression of cell proliferation of GCTB cultured cells (Cell Counting Kit-8, WST assay); format: cell-based, human; conditions: drug at various concentrations, CCK-8 24 hours after addition
Description: Tissue Int., 75:71-77), repeatedly subcultured until there were only spindle-shaped cells, which state was gradually attained from the state that there were also multinucleated giant cells observed in an early stage, and then used for the following analysis. […] Zaltoprofen was added as a solution in DMSO (dimethyl sulfoxide) prepared at a concentration 1000 times higher than the final concentration, and the solution was added in a volume of 0.1% of the volume of the medium. The same shall apply to the other drugs used in the following examples. […]

SW1353 cells [6] = experiment: Cell invasion of SW1353 cells (Matrigel Invasion Chamber); format: cell-based, human; conditions: all set concentrations, concentration-dependent; 24 hours
From the text: For the analysis of cell invasion, Matrigel™ Invasion Chamber (BD Bioscience, catalog number 354480), which uses Matrigel as the matrix, was used. […] FIGS. 76 and 77 show microphotographs of invaded cells fixed by immersion into a 4% paraformaldehyde solution, and stained with hematoxylin (magnification is 200 times). From the microphotographs of FIGS. 76 and 77, the patterns of the invaded cells can be understood.

SW1353 cells [7] = experiment: Cell migration of human chondrosarcoma cell line SW1353; format: cell-based; conditions: 72 hours
Description: The analysis of cell migration was performed by using a 6-well plate of TPP according to the method described in Takeuchi A, et al., Cancer Science, 104:740-749, 2013 (Low molecular weight heparin suppresses receptor for advanced glycation end products-mediated expression of malignant phenotype in human fibrosarcoma cells). Cells of the human chondrosarcoma cell line, SW1353, were cultured in the same manner as that of Example 1 until they became sub-confluent, and the cells were delaminated in a width of 1 mm using a micropipette tip (200 μl). […] Then, area of the cells migrated to the region where the cells were delaminated was measured by using Image J software (http://rsb.info.nih.gov/ij/index.html) (FIGS. 73 and 74).

Solubility in DMSO = format: physicochemical; conditions: limited highest test concentration (lornoxicam 80 μm, ampiroxicam 20 μm)
colon cancer = conditions: cited from earlier work
[8] = system: OST cells, human bone sarcoma-derived cultured cells; conditions: transdermally administered; after four weeks; cited from earlier work
PVNS = conditions: in vitro; cited from earlier work
SW1353 cells [9] = experiment: Proliferation of SW1353 cells cultured beforehand with PPARγ siRNA or control siRNA; format: cell-based, human; conditions: 100 μM rosiglitazone; 24 hours
[10] = all set concentrations, concentration-dependent

CS(=O)(=O)Nc1ccc([N+](=O)[O-])cc1OC1CCCCC1 [NS-398]
activation of PPARγ [1]: did not activate PPARγ | apoptosis [1]: did not cause apoptosis | suppression of proliferation of the cells [1]: suppressed proliferation

COc1ccc2c(c1)c(CC(=O)OCC(=O)O)c(C)n2C(=O)c1ccc(Cl)cc1 [acemetacine, acemetacin]
suppression of cell proliferation (absorbance at 450 nm) [2]: suppressed proliferation | suppression of cell proliferation (absorbance at 450 nm) [3]: suppressed proliferation | suppression of cell proliferation (absorbance at 450 nm) (SW1353 cells [4]): suppressed proliferation | suppression of cell proliferation (absorbance at 450 nm) (H-EMC-SS cells): suppressed proliferation | suppression of cell proliferation (live cell count, absorbance at 450 nm) [5]: suppressed proliferation

CC(=O)Nc1ccc(O)cc1 [acetaminophen]
suppression of cell proliferation (absorbance at 450 nm) [2]: suppressed proliferation | suppression of cell proliferation (absorbance at 450 nm) [3]: suppressed proliferation | suppression of cell invasion of SW1353 cells (SW1353 cells [6]): suppressed the cell invasion | suppression of cell proliferation (absorbance at 450 nm) (SW1353 cells [4]): suppressed proliferation | suppression of cell migration of SW1353 cells (SW1353 cells [7]; [10]): suppressed the cell migration | suppression of cell proliferation (absorbance at 450 nm) (H-EMC-SS cells): suppressed proliferation | activation of PPARγ [1]: did not cause activation of PPARγ | apoptosis [1]: did not cause | suppression of proliferation of the cells [1]: did not cause | suppression of cell proliferation (live cell count, absorbance at 450 nm) [5]: suppressed in a drug concentration-dependent manner; also recorded: suppressed proliferation

CCOC(=O)OC(C)OC1=C(C(=O)Nc2ccccn2)N(C)S(=O)(=O)c2ccccc21 (stereo not shown) [ampiroxicam]
suppression of cell proliferation (absorbance at 450 nm) [2]: suppressed proliferation | suppression of cell proliferation (absorbance at 450 nm) [3]: suppressed proliferation | solubility in DMSO (dimethyl sulfoxide) (Solubility in DMSO): low solubility | suppression of cell proliferation (absorbance at 450 nm) (SW1353 cells [4]): suppressed proliferation | suppression of cell proliferation (absorbance at 450 nm) (H-EMC-SS cells): suppressed proliferation | suppression of cell proliferation (live cell count, absorbance at 450 nm) [5]: suppressed proliferation

Cc1ccc(-c2cc(C(F)(F)F)nn2-c2ccc(S(N)(=O)=O)cc2)cc1 [celecoxib]
suppression of cell migration of SW1353 cells (SW1353 cells [7]; 75 μM celecoxib): higher than 80%

O=C(O)Cc1ccccc1Nc1c(Cl)cccc1Cl [diclofenac]
suppression of cell proliferation (absorbance at 450 nm) [2]: suppressed proliferation | suppression of cell proliferation (absorbance at 450 nm) [3]: suppressed proliferation | suppression of cell invasion of SW1353 cells (SW1353 cells [6]): suppressed the cell invasion | suppression of cell proliferation (absorbance at 450 nm) (SW1353 cells [4]): suppressed proliferation | suppression of cell migration of SW1353 cells (SW1353 cells [7]; [10]): suppressed the cell migration | suppression of cell proliferation (absorbance at 450 nm) (H-EMC-SS cells): suppressed proliferation | activation of PPARγ [1]: activated PPARγ | apoptosis [1]: caused apoptosis | suppression of proliferation of the cells [1]: suppress proliferation | suppression of cell proliferation (live cell count, absorbance at 450 nm) [5]: suppressed in a drug concentration-dependent manner; also recorded: suppressed proliferation | occurrence of colon cancer (colon cancer; induced by repetitive administration of 1,2-dimethylhydrazine dihydrochloride to rats): prevented occurrence of colon cancer | amount of NF-κB protein in the large intestine (colon cancer; rats): reduced amount of NF-κB protein | amount of the PPARγ protein (colon cancer; rats): increased amount of the PPARγ protein

CCc1cccc2c3c([nH]c12)C(CC)(CC(=O)O)OCC3 (stereo not shown) [etodolac]
suppression of cell proliferation (absorbance at 450 nm) [2]: suppressed proliferation | suppression of cell proliferation (absorbance at 450 nm) [3]: suppressed proliferation | suppression of cell proliferation (absorbance at 450 nm) (SW1353 cells [4]): suppressed proliferation | suppression of cell proliferation (absorbance at 450 nm) (H-EMC-SS cells): suppressed proliferation | suppression of cell proliferation (live cell count, absorbance at 450 nm) [5]: suppressed proliferation

COc1ccc2c(c1)c(CC(=O)O)c(C)n2C(=O)c1ccc(Cl)cc1 [indomethacin]
suppression of cell proliferation (absorbance at 450 nm) [2]: suppressed proliferation | suppression of cell proliferation (absorbance at 450 nm) [3]: suppressed proliferation | suppression of cell invasion of SW1353 cells (SW1353 cells [6]): suppressed the cell invasion | suppression of cell proliferation (absorbance at 450 nm) (SW1353 cells [4]): suppressed proliferation | suppression of cell migration of SW1353 cells (SW1353 cells [7]; [10]): suppressed the cell migration | suppression of cell proliferation (absorbance at 450 nm) (H-EMC-SS cells): suppressed proliferation | activation of PPARγ [1]: activated PPARγ | apoptosis [1]: caused apoptosis | suppression of proliferation of the cells [1]: suppress proliferation | suppression of cell proliferation (live cell count, absorbance at 450 nm) [5]: suppressed in a drug concentration-dependent manner; also recorded: suppressed proliferation

CC(C(=O)O)c1cccc(C(=O)c2ccccc2)c1 (stereo not shown) [ketoprofen]
tumor weight relative to placebo group [8]: 48% | activation of PPARγ [1]: did not cause activation of PPARγ | apoptosis [1]: did not cause | suppression of proliferation of the cells [1]: did not cause

CN1C(C(=O)Nc2ccccn2)=C(O)c2sc(Cl)cc2S1(=O)=O [lornoxicam]
suppression of cell proliferation (absorbance at 450 nm) [2]: suppressed proliferation | suppression of cell proliferation (absorbance at 450 nm) [3]: suppressed proliferation | solubility in DMSO (dimethyl sulfoxide) (Solubility in DMSO): low solubility | suppression of cell proliferation (absorbance at 450 nm) (SW1353 cells [4]): suppressed proliferation | suppression of cell proliferation (absorbance at 450 nm) (H-EMC-SS cells): suppressed proliferation | suppression of cell proliferation (live cell count, absorbance at 450 nm) [5]: suppressed proliferation

NC(=O)c1ncn([C@@H]2O[C@H](CO)[C@@H](O)[C@H]2O)c1O [mizoribine]
inhibition of proliferation of PVNS (PVNS): slightly inhibited proliferation

COc1ccc(-c2noc(CC(=O)O)c2-c2ccc(OC)cc2)cc1 [mofezolac]
suppression of cell proliferation (absorbance at 450 nm) [2]: suppressed proliferation | suppression of cell proliferation (absorbance at 450 nm) [3]: suppressed proliferation | suppression of cell proliferation (absorbance at 450 nm) (SW1353 cells [4]): suppressed proliferation | suppression of cell proliferation (absorbance at 450 nm) (H-EMC-SS cells): suppressed proliferation | suppression of cell proliferation (live cell count, absorbance at 450 nm) [5]: suppressed proliferation

COc1ccc2cc([C@H](C)C(=O)O)ccc2c1 [naproxen]
suppression of cell proliferation (absorbance at 450 nm) [2]: suppressed proliferation | suppression of cell proliferation (absorbance at 450 nm) [3]: suppressed proliferation | suppression of cell proliferation (absorbance at 450 nm) (SW1353 cells [4]): suppressed proliferation | suppression of cell proliferation (absorbance at 450 nm) (H-EMC-SS cells): suppressed proliferation | suppression of cell proliferation (live cell count, absorbance at 450 nm) [5]: suppressed proliferation

O=C(O)CCc1nc(-c2ccccc2)c(-c2ccccc2)o1 [oxaprozin]
suppression of cell proliferation (absorbance at 450 nm) [2]: suppressed proliferation | suppression of the proliferation at the highest measured concentration ([2]; oxaprozin 200 μm, cells of pigmented villonodular synovitis as printed, 400 μm or higher could not be measured): only slight suppression | suppression of cell proliferation (absorbance at 450 nm) [3]: suppressed proliferation | suppression of cell proliferation (absorbance at 450 nm) (SW1353 cells [4]): suppressed proliferation | suppression of cell proliferation (absorbance at 450 nm) (H-EMC-SS cells): suppressed proliferation | activation of PPARγ [1]: activated PPARγ | apoptosis [1]: caused apoptosis | suppression of proliferation of the cells [1]: suppress proliferation | suppression of cell proliferation (live cell count, absorbance at 450 nm) [5]: suppressed proliferation

CN(CCOc1ccc(CC2SC(=O)NC2=O)cc1)c1ccccn1 (stereo not shown) [rosiglitazone]
suppression of proliferation of SW1353 cells (SW1353 cells [9]): about 61%

Cc1c(C)c2c(c(C)c1O)CCC(C)(COc1ccc(CC3SC(=O)NC3=O)cc1)O2 (stereo not shown) [troglitazone]
suppression of cell migration of SW1353 cells (SW1353 cells [7]; 100 μM troglitazone): about 65%
